Test results published in patent publication EP2931723B1, “NEW BICYCLIC COMPOUNDS AND THEIR USE AS ANTIBACTERIAL AGENTS AND -LACTAMASE INHIBITORS” (Fedora Pharmaceuticals Inc., priority 2012, dated 2014).

Experiments:
Assay in all cases: MIC, antibacterial and synergistic activity
Format in all cases: cell-based
E. coli ATCC 25922 = E. coli ATCC 25922 (Wt)
A. baumanii JMI 2659 = A. baumanii JMI 2659 (Ges-14 (Cpase))
E.coli JMI 4103 = E.coli JMI 4103 (KPC-2, Tem-1, CMY-Type)
E. coli JMI 4080 = test system: E. coli JMI 4080
E. coli JMI 10768 [1] = conditions: E. coli JMI 10768 (CTX-M15 (Weak ESBL))
Method: (§1) In the Tables 10 - 12, compounds herein disclosed were tested in combination with various antibiotics against metallo β-lactamase producing bacteria. Table 3: Synergy of the inhibitor Ex. 1 (4 µg/mL) in combination with antibiotics

E. coli JMI 2665 = test system: E. coli JMI 2665
Method: as §1

K. pneumo JMI 2673 [2] = conditions: K. pneumo JMI 2673 (CTX-M14 (ESBL))
How it was run: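 Antibacterial synergy was assessed by testing a β-lactamase inhibitor compound in combination with antibiotics. The inhibitor was held at a fixed concentration of 4 µg/mL, and the minimum inhibitory concentration of the partner antibiotic was determined in its presence.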

K. pneumo JMI 2699 = K. pneumo JMI 2699 (VIM-1, CTX-M3)
How it was run: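 Here the inhibitor, at a set 4 µg/mL, accompanies each antibiotic. MIC determination used MBL-positive bacteria.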

K. pneumo JMI 4088 [3] = conditions: K. pneumo JMI 4088 (KPC-3 (Cpase))
How it was run: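 The compound was tested for synergy by combining it with antibiotics and measuring minimum inhibitory concentrations against β-lactamase producing bacteria. The inhibitor was present at a fixed concentration of 4 µg/mL together with the partner antibiotic, and MIC values were recorded.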

K.pneumo JMI 4109 [4] = conditions: K.pneumo JMI 4109 (SHV-1, SHV-12)
How it was run: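 Antibacterial synergy was assessed by pairing each inhibitor compound, at a constant concentration of 4 µg/mL, with β-lactam antibiotics. The combinations were run against bacterial strains that produce β-lactamases, and the readout was the minimum inhibitory concentration of the antibiotic in the presence of the inhibitor.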

K. pneumo JMI 4106 = K. pneumo JMI 4106 (KPC-3, TEM-1, SHV-12, SHV-141)
E. coli JMI 2692 = E. coli JMI 2692 (NDM-1, TEM-1, CTX-M-15)
Method: (§2) In the Tables 10 - 12, compounds herein disclosed were tested in combination with various antibiotics against metallo β-lactamase producing bacteria.

K. pneumo JMI 2693 = K. pneumo JMI 2693 (NDM-1 (Cpase))
Method: as §2

K. pneumo JMI 2697 = K. pneumo JMI 2697 (IMP-4 (Cpase))
Method: as §2

K.pneumo JMI 4109 [5] = conditions: K.pneumo JMI 4109 (SHV-1, SHV-12); substance alone
K. pneumo JMI 2673 [6] = conditions: K. pneumo JMI 2673 (CTX-M14 (ESBL)); substance alone
K. pneumo JMI 2674 = K. pneumo JMI 2674 (CTX-M15 (ESBL)); substance alone
K. pneumo JMI 4088 [7] = conditions: K. pneumo JMI 4088 (KPC-3 (Cpase)); substance alone
P. aerug JMI 2686 = P. aerug JMI 2686 (KPC-2 (Cpase)); substance alone
E. coli JMI 10767 = E. coli JMI 10767 (Wt)
E. coli JMI 10768 [8] = conditions: E. coli JMI 10768 (CTX-M15 (Weak ESBL)); Meropenem + inhibitor at 4 µg/mL
E. coli JMI 11103 = test system: E. coli JMI 11103
[9] = Aztreonam + inhibitor at 4 µg/mL
[10] = Ceftazidime + inhibitor at 4 µg/mL
[11] = Meropenem + inhibitor at 4 µg/mL

CCC(=O)NNC(=O)[C@@H]1CC[C@@H]2CN1C(=O)N2OS(=O)(=O)O [Ex. 8, (2S,5R)-7-oxo-N'-propanoyl-6-(sulfooxy)-1,6-diazabicyclo[3.2.1]octane-2-carbohydrazide]
4 µg/mL: MIC (E.coli JMI 4103; Escherichia coli, JMI4103, substance alone) | MIC (E. coli JMI 4080; Escherichia coli, JMI4080, E. coli JMI 4080 (Tem-10), substance alone) | MIC (E. coli JMI 2665; Escherichia coli, JMI2665) | MIC (E. coli JMI 2692; Escherichia coli, JMI2692, substance alone, read-out: MIC) | MIC (K.pneumo JMI 4109 [5])
>4 µg/mL: MIC Aztreonam + inhibitor (A. baumanii JMI 2659; [9])
16 µg/mL: MIC (E. coli ATCC 25922; Escherichia coli, ATCC25922, substance alone) | MIC Ceftazidime + inhibitor (K. pneumo JMI 2697; [10])
> 16 µg/mL: MIC (A. baumanii JMI 2659; Acinetobacter baumannii, JMI2659, substance alone, read-out: MIC) | MIC (E. coli JMI 10768 [1]; Escherichia coli, JMI10768, substance alone) | MIC (K. pneumo JMI 2699; substance alone, read-out: MIC) | MIC (K. pneumo JMI 4106; substance alone, read-out: MIC) | MIC (K. pneumo JMI 2693; substance alone) | MIC (K. pneumo JMI 2697; substance alone) | MIC (K. pneumo JMI 2673 [6]) | MIC (K. pneumo JMI 2674) | MIC (K. pneumo JMI 4088 [7]) | MIC (P. aerug JMI 2686) | MIC (E. coli JMI 10767; Escherichia coli, JMI10767, substance alone) | MIC (E. coli JMI 11103; Escherichia coli, JMI11103, E. coli JMI 11103 (CTX-M15 (Intermediate ESBL)), substance alone)
≤0.0312 µg/mL: MIC Meropenem + inhibitor (E. coli ATCC 25922; [11]) | MIC Meropenem + inhibitor (E.coli JMI 4103; [11]) | MIC Meropenem + inhibitor (E. coli JMI 4080; E. coli JMI 4080 (Tem-10), Meropenem + inhibitor at 4 µg/mL) | MIC Meropenem + inhibitor (K. pneumo JMI 2673 [2]; [11]) | MIC Meropenem + inhibitor (K.pneumo JMI 4109 [4]; [11]) | MIC Meropenem + inhibitor (K. pneumo JMI 4106; [11]) | MIC Meropenem + inhibitor (E. coli JMI 10767; [11]) | MIC Meropenem + inhibitor (E. coli JMI 10768 [8]) | MIC Meropenem + inhibitor (E. coli JMI 11103; E. coli JMI 11103 (CTX-M15 (Intermediate ESBL)), Meropenem + inhibitor at 4 µg/mL)
≤0.062 µg/mL: MIC Aztreonam + inhibitor (E.coli JMI 4103; [9]) | MIC Aztreonam + inhibitor (E. coli JMI 4080; E. coli JMI 4080 (Tem-10), Aztreonam + inhibitor at 4 µg/mL) | MIC Aztreonam + inhibitor (E. coli JMI 10768 [1]; [9]) | MIC Aztreonam + inhibitor (E. coli JMI 2665; E. coli JMI 2665 (CMY-2 (Plasmid Cpase)), Aztreonam + inhibitor at 4 µg/mL) | MIC Aztreonam + inhibitor (K. pneumo JMI 2673 [2]; [9]) | MIC Aztreonam + inhibitor (K. pneumo JMI 2699; [9]) | MIC Aztreonam + inhibitor (K.pneumo JMI 4109 [4]; [9]) | MIC Aztreonam + inhibitor (K. pneumo JMI 4106; [9]) | MIC Aztreonam + inhibitor (E. coli JMI 2692; [9]) | MIC Aztreonam + inhibitor (K. pneumo JMI 2697; [9]) | MIC Aztreonam + inhibitor (E. coli JMI 11103; E. coli JMI 11103 (CTX-M15 (Intermediate ESBL)), Aztreonam + inhibitor at 4 µg/mL)
2 µg/mL: MIC Meropenem + inhibitor (E. coli JMI 2692; [11]) | MIC Aztreonam + inhibitor (K. pneumo JMI 2693; [9]) | MIC Meropenem + inhibitor (K. pneumo JMI 2697; [11])
>2 µg/mL: MIC Meropenem + inhibitor (A. baumanii JMI 2659; [11])
>16 µg/mL: MIC Ceftazidime + inhibitor (A. baumanii JMI 2659; [10])
≤0.0625 µg/mL: MIC Aztreonam + inhibitor (E. coli ATCC 25922; [9])
0.125 µg/mL: MIC Meropenem + inhibitor (K. pneumo JMI 2699; [11]) | MIC Aztreonam + inhibitor (K. pneumo JMI 4088 [3]; [9]) | MIC Meropenem + inhibitor (K. pneumo JMI 2693; [11])
8 µg/mL: MIC Ceftazidime + inhibitor (K. pneumo JMI 2693; [10])
≤0.25 µg/mL: MIC Ceftazidime + inhibitor (E. coli ATCC 25922; [10]) | MIC Ceftazidime + inhibitor (E.coli JMI 4103; [10]) | MIC Ceftazidime + inhibitor (E. coli JMI 4080; E. coli JMI 4080 (Tem-10), Ceftazidime + inhibitor at 4 µg/mL) | MIC Ceftazidime + inhibitor (E. coli JMI 10768 [1]; [10]) | MIC Ceftazidime + inhibitor (E. coli JMI 2665; E. coli JMI 2665 (CMY-2 (Plasmid Cpase)), Ceftazidime + inhibitor at 4 µg/mL) | MIC Ceftazidime + inhibitor (K. pneumo JMI 2673 [2]; [10]) | MIC Ceftazidime + inhibitor (K. pneumo JMI 2699; [10]) | MIC Ceftazidime + inhibitor (K.pneumo JMI 4109 [4]; [10]) | MIC Ceftazidime + inhibitor (K. pneumo JMI 4106; [10]) | MIC Ceftazidime + inhibitor (E. coli JMI 2692; [10]) | MIC Ceftazidime + inhibitor (E. coli JMI 11103; E. coli JMI 11103 (CTX-M15 (Intermediate ESBL)), Ceftazidime + inhibitor at 4 µg/mL)
0.5 µg/mL: MIC Ceftazidime + inhibitor (K. pneumo JMI 4088 [3]; [10]) | MIC Meropenem + inhibitor (K. pneumo JMI 4088 [3]; [11])
